In test [1] the target is T1, Free fatty acid receptor 1 (Homo sapiens, UniProt O14842). Description: Agonist activity at human FFA1 expressed in CHO cells assessed as increase in intracellular Ca2+ flux at 1 uM measured for 90 secs by Fluo4-AM dye based FLIPR assay relative to control. The class given is functional, cell-based. (In general: Calcium assays in cells follow changes in intracellular calcium, usually with a dye or a luminescent sensor.)

Test [2] has as its system Mus musculus. Description: Decrease in plasma glucose level in po dosed ICR mouse 60 mins before oral glucose challenge by OGTT method. The class given is functional, organism-based. The conditions noted are these: TDE = time-dependent effect.
For test [3], the system named is Mus musculus. Description: Anti-diabetic activity in ICR mouse assessed as reduction in blood glucose AUC at 50 mg/kg, po pretreated for 60 mins followed by glucose challenge measured after 120 mins by OGTT relative to control. In kind it is functional. Details: scale not given: the % may be the effect or the level left.
For test [4], the system named is Mus musculus. Description: Antidiabetic activity in HFD/STZ-induced type2 diabetic C57BL/6 mouse assessed as decrease in blood glucose AUC at 20 mg/kg, po administered as single dose 60 mins prior to glucose challenge measured 120 mins post dose by OGTT relative to control. In kind it is functional. The arrangement: scale not given: the % may be the effect or the level left.

Test [5] deals with T1, Free fatty acid receptor 1. Description: Agonist activity at FFA1 (unknown origin).
In test [6] the test system is Mus musculus. Nature of the test: Anti-diabetic activity in ICR mouse assessed as reduction in blood glucose level at 200 mg/kg, po pretreated for 60 mins followed by glucose challenge measured after 120 mins by OGTT relative to control. The class given is functional. Details: scale not given: the % may be the effect or the level left.
Test [7] has as its system Mus musculus. Nature of the test: Anti-diabetic activity in ICR mouse assessed as reduction in blood glucose level at 50 mg/kg, po pretreated for 60 mins followed by glucose challenge measured after 120 mins by OGTT relative to control. In kind it is functional. The arrangement: scale not given: the % may be the effect or the level left.
Test [8] relates to Mus musculus. Description: Antidiabetic activity in HFD/STZ-induced type2 diabetic C57BL/6 mouse assessed as decrease in blood glucose excursion administered as single oral dose pretreated for 60 mins followed by glucose challenge after 120 mins by OGTT. The class given is functional.
The test system of test [9] is Mus musculus. Description: Antidiabetic activity in HFD/STZ-induced type2 diabetic C57BL/6 mouse assessed as decrease in blood glucose AUC at 100 mg/kg, po administered as single dose 60 mins prior to glucose challenge measured 120 mins post dose by OGTT relative to control. In kind it is functional. Details: scale not given: the % may be the effect or the level left.

Each structure is given as a SMILES string.

T1 sequence (O14842 whole entry): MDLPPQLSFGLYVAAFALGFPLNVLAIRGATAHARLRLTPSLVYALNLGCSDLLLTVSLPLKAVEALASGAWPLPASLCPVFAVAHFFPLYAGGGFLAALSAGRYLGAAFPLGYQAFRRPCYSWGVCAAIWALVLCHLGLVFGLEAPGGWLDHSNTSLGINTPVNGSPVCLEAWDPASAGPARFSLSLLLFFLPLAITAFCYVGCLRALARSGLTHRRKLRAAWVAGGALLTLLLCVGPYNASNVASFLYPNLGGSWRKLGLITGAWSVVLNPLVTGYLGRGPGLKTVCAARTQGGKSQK

`O=C(O)CCc1ccc(NC(=O)c2ccccc2)cc1`: in test [1], the Activity came out at 18.8%. On to `O=C(O)CCc1ccc(NC(=O)c2cccnc2)cc1`, for which the Activity in [1] amounted to 4.29%. As to `O=C(O)CCc1ccc(NCc2cccc(Oc3ccccc3)c2)cc1`, in [1], the Activity was 83.8%.

For `O=C(O)CCc1ccc(NC(=O)c2ccc(Cl)cc2)cc1`, in test [1], the Activity is 17.9%.

Consider `O=C(O)CCc1ccc(NC(=O)c2ccccc2Cl)cc1`, for which the Activity in test [1] came to 7.73%. The same measure, in the same setting: in the case of `Cc1ccc(C(=O)Nc2ccc(CCC(=O)O)cc2)cc1` it was 19.4%; in that of `O=C(O)CCc1ccc(NC(=O)c2ccccc2[N+](=O)[O-])cc1`, 0.19%. Still for that read-out and setting: under `COc1cccc(C(=O)Nc2ccc(CCC(=O)O)cc2)c1` stands 19.8%. As for `O=C(O)CCc1ccc(NC(=O)c2cccc(Oc3ccccc3)c2)cc1`, the Activity result in the test with Mus musculus [2] was “Tde”; in test [1], 34.3%; in the test with Mus musculus [3] it was 12.8%. As to `Cc1cc(OCCCS(C)(=O)=O)cc(C)c1-c1cccc(COc2ccc3c(c2)OC[C@H]3CC(=O)O)c1` [FASIGLIFAM], the Activity in [1] came out at 96.3%; with Mus musculus [4], 39.1%. Consider `O=C(O)c1ccc(NC(=O)c2ccc(C(=O)c3ccccc3)cc2)cc1`, for which the Activity in [1] stood at 15.3%. The EC50 is the concentration needed to bring the measured effect to its halfway point. Consider `CC#C[C@@H](CC(=O)O)c1ccc(NC(=O)C(=O)Nc2cccc(C(C)(C)C)c2)cc1`, for which, in test [5], it took 4 nM to reach a half-maximal effect (EC50).

With `O=C(O)CCc1ccc(NC(=O)c2cccc(Cl)c2)cc1`, the Activity entry in the test with Mus musculus [2] was “Tde”; in test [1] it was 25.4%. Take `CN(C)C(=N)NC(=N)N` [METFORMIN]: in the test on Mus musculus [6], the Activity came out at 27.8%.

`CC(C)(C)c1ccc(C(=O)Nc2ccc(CCC(=O)O)cc2)cc1`: the results for the Activity entry (with Mus musculus [2]; in [1]) were “Tde” and 21.4%, respectively. Consider `Cc1ccccc1C(=O)Nc1ccc(CCC(=O)O)cc1`, for which the Activity in [1] stood at 5.67%. On the same count and under the same terms, under `O=C(O)CCc1ccc(NC(=O)c2ccsc2)cc1` stands 15.4%; under `O=C(O)CCc1ccc(NC(=O)c2cccs2)cc1`, 13.8%. `Cc1cccc(C(=O)Nc2ccc(CCC(=O)O)cc2)c1`: the Activity result with Mus musculus [2] is “Tde”; in test [1], 29.4%; with Mus musculus [3], 20.3%. With `COc1ccccc1C(=O)Nc1ccc(CCC(=O)O)cc1`, in test [1], the Activity came to 1.26%.

Turning to `Cc1cccc(C)c1-c1cccc(C(=O)Nc2ccc(CCC(=O)O)cc2)c1`, the Activity was 23.7% in the test on Mus musculus [7]; “Dose-dependent effect” in the test on Mus musculus [8]; “Tde” in the test with Mus musculus [2]; 45.8% in test [1]; 23.7% with Mus musculus [3]; 29.1% in the test on Mus musculus [9].

For the origin of these results see ChEMBL document CHEMBL4011595, “Design, synthesis and structure-activity relationship studies of novel free fatty acid receptor 1 agonists bearing amide linker” (Bioorg Med Chem, 2017).
